Reference: patent US10414774B2, “Compound useful for altering the levels of bile acids for the treatment of diabetes and cardiometabolc disease” (Merck Sharp & Dohme Corp., priority 2016, dated 2019)

Molecular target: T1, Human CYP8B1 (Homo sapiens, UniProt Q9UNU6)
T1 sequence (Q9UNU6 1-501): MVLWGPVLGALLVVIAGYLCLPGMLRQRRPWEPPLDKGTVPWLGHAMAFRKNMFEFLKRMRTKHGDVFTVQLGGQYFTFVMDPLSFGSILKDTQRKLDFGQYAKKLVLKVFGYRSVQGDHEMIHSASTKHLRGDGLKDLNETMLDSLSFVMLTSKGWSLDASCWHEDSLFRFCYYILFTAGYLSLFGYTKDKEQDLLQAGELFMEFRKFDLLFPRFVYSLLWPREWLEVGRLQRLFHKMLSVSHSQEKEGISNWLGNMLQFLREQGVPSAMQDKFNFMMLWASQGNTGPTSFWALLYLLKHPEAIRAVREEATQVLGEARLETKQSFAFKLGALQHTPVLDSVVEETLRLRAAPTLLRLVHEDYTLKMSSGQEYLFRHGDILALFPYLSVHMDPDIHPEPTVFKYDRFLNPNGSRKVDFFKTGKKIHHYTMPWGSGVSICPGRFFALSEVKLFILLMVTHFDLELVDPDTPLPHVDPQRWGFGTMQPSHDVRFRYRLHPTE
Description: Human CYP8B1 Liver Microsome Assay
To a 384 well polypropylene plate (Corning 3656), 250 nl of inhibitor in 100% DMSO (1.25% final DMSO concentration) was pre-plated using an Echo liquid handler (Labcyte Inc.). Human liver microsomes (Xenotech) were diluted in of 0.1 M phosphate buffer, pH 7.4, at a concentration of 65 μg/ml and 15 μL was added to the 384 well plate. The plates were incubated at ambient room temperature for 30 minutes. After pre-incubation with inhibitor, the reaction was initiated by adding 5 μl of substrate solution (4.0 μM 7a-hydroxy-4-cholesten-3-one (Toronto Research Chemicals), 2 mM of NADPH (Sigma), 0.1 M phosphate buffer (pH 7.4). The reaction was carried out for 45 minutes at ambient room temperature and was quenched by the addition of 50 μl of acetonitrile+0.1% vol/vol formic acid (FA)+300 nM 7α-hydroxy-4-cholesten-3-one-d7 (Toronto Research Chemicals). The plates were sealed and centrifuged at 3000 rpm for 5 minutes. Plates were loaded onto the Agilent RapidFire RF300 HTMS system, wherein samples were sipped for 600 ms, and the sip sensor detection signals the diversion of sample from the loop onto a C4 solid phase extraction (SPE) cartridge, where salts are washed off for 2500 ms with a mobile phase of water with 0.1% vol/vol FA at a flow rate of 1.5 ml/min. The column path was switched, and the sample was eluted off the cartridge and flowed into the mass spectrometer for 3000 ms with a mobile phase of acetonitrile and 0.1% vol/vol FA at a flow rate of 1.25 ml/min. The aspirator tip was washed separately with water and acetonitrile between sample aspirations (each for 600 ms) to minimize carryover contamination. Mass spectrometry was carried out using a Sciex API4000 triple quadrupole mass spectrometer (Applied Biosystems, Concord, ON, Canada) equipped with electrospray ionization (ESI) operated in the positive-ion mode. The product 7α,12α-dihydroxy-4-cholesten-3-one and internal standard 7α-hydroxy-4-cholsten-3-one-d7 were detected using multiple reaction monitoring (MRM) with Q1/Q3 transitions at m/z 417.3 to 381.3 and m/z 408.3 to 390.3, respectively, with a dwell time of 100 ms and a collision energy of 24 V for each transition. The mass spectrometer used an ESI voltage of 5000 V and a source temperature of 650° C. Extracted ion chromatograms for each transition were integrated and processed using the RapidFire Integrator software. The data for each well were normalized by monitoring product conversion with the ratio of AUCproduct/(AUCinternal standard). The data was then fitted to a four parameter logistic fit using ActivityBase Software to calculate an IC50 of the inhibitor.

IC50: 4.5 µM
Substance: 6-chloro-4-[(3S,4S)-4-(6,7-dihydro[1,2,3]triazolo[1,5-a]pyrazin-5-(4H)-ylcarbonyl)-3-methylpiperidin-1-yl]-2-methylquinoline-3-carbonitrile [Example 94]
